Values quoted from earlier work as cited in patent US20060094734A1, “Composition and method for inducing alertness” (priority 2004, published 2006).

Test system: rats
Conditions: rat, in vivo

NCCS(=O)(=O)O [taurine, 2-aminoethanesulfonic acid]
LD 50: greater than 5,000 mg/kg
